According to ChEMBL document CHEMBL1201862, “PubChem BioAssay data set” (2004):
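Where inhibition never reached the appropriate level, the endpoint shown equals the highest concentration tested. Otherwise, values were interpolated linearly from a five-concentration, 48-hour dose response in 96-well plates. GI50 marks 50% less growth.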 Calls of active or inactive are those of the source. Cut-off read from the data, not from the text of the source: active = GI50 up to about 1.1 µM and inactive = higher.

Tests used:
Assay in all cases: growth of human tumour cells (NCI), 48 h
A498 = tested on: A498
MOLT-4 = tested on: MOLT-4
SNB-19 = tested on: SNB-19
OVCAR-8 = tested on: OVCAR-8
OVCAR-5 = tested on: OVCAR-5
NCI-H522 = tested on: NCI-H522
SK-MEL-5 = tested on: SK-MEL-5
SK-MEL-2 = tested on: SK-MEL-2
UACC-257 = tested on: UACC-257
CAKI-1 = tested on: CAKI-1
CCRF-CEM = tested on: CCRF-CEM
LOX IMVI = tested on: LOX IMVI
HT-29 = tested on: HT-29
HL-60 = tested on: HL-60
NCI-H23 = tested on: NCI-H23
DU-145 = tested on: DU-145
MDA-MB-231 = tested on: MDA-MB-231
NCI/ADR-RES = tested on: NCI/ADR-RES
MDA-MB-435 = tested on: MDA-MB-435

Measured: GI50

CC1(C)OC2OC(/C=C/[N+](=O)[O-])C3OC(C)(C)OC3C2O1 (centres undefined)
inactive: A498 20.5 µM | MOLT-4 3.01 µM | SNB-19 18.5 µM | OVCAR-8 8.47 µM | OVCAR-5 23.2 µM | NCI-H522 1.77 µM | SK-MEL-5 16.6 µM | SK-MEL-2 18.2 µM | UACC-257 7.52 µM | CAKI-1 4.67 µM | CCRF-CEM 2.94 µM | LOX IMVI 7.5 µM | HT-29 17.2 µM | HL-60 2.94 µM | NCI-H23 18.7 µM

CS/C(C#N)=C(\C#N)SC
active: MOLT-4 0.233 µM
inactive: DU-145 13.6 µM | A498 23 µM | MDA-MB-231 24.7 µM | SNB-19 25.7 µM | OVCAR-8 2.74 µM | OVCAR-5 26.3 µM | NCI-H522 1.42 µM | NCI/ADR-RES 18.8 µM | SK-MEL-5 18.2 µM | SK-MEL-2 12.4 µM | UACC-257 10.9 µM | MDA-MB-435 14 µM | CAKI-1 6.04 µM | CCRF-CEM 5.6 µM | LOX IMVI 2.5 µM | HT-29 16.1 µM | HL-60 1.79 µM | NCI-H23 5.61 µM

CCOC(=O)C1=C(C)NC(=O)NC1c1coc2cc(C)cc(C)c2c1=O (centres undefined)
inactive: DU-145 > 100 µM | A498 > 100 µM | MOLT-4 27.5 µM | MDA-MB-231 > 61.5 µM | SNB-19 90.2 µM | OVCAR-8 64.1 µM | OVCAR-5 49 µM | NCI-H522 1.68 µM | NCI/ADR-RES 27.5 µM | SK-MEL-5 > 51.2 µM | SK-MEL-2 > 43.8 µM | UACC-257 40.2 µM | MDA-MB-435 4.5 µM | CAKI-1 > 100 µM | CCRF-CEM 37.7 µM | LOX IMVI 69.2 µM | HT-29 32.1 µM | HL-60 > 54.5 µM | NCI-H23 > 86.7 µM

COc1ccc(Nc2nc3c(N)cc(C(F)(F)F)cc3nc2-c2ccccc2)cc1OC
inactive: A498 31.8 µM | MOLT-4 66.7 µM | SNB-19 19.8 µM | OVCAR-8 15.1 µM | OVCAR-5 64.7 µM | NCI-H522 15.6 µM | SK-MEL-5 20.4 µM | SK-MEL-2 22 µM | UACC-257 27.2 µM | CAKI-1 22.6 µM | CCRF-CEM > 100 µM | LOX IMVI 40.6 µM | HL-60 8.63 µM | NCI-H23 32.9 µM

O=C(O)CNc1ccc2c(c1)Cc1cc(Br)ccc1-2
inactive: DU-145 25.9 µM | A498 22 µM | MDA-MB-231 19.7 µM | SNB-19 24.3 µM | OVCAR-8 23.9 µM | OVCAR-5 27.5 µM | NCI-H522 18.5 µM | NCI/ADR-RES 25.6 µM | SK-MEL-5 6.55 µM | SK-MEL-2 26 µM | UACC-257 22.8 µM | MDA-MB-435 15.3 µM | CAKI-1 19.5 µM | CCRF-CEM 22.1 µM | LOX IMVI 26.6 µM | HT-29 27.1 µM | HL-60 23.4 µM | NCI-H23 18 µM
active: MOLT-4 0.746 µM

O=c1c2cc(Br)ccc2nc(-c2ccccc2)n1NCC1(O)OCC(O)C(O)C1O (centres undefined)
inactive: A498 > 100 µM | MOLT-4 72.8 µM | SNB-19 > 100 µM | OVCAR-8 > 100 µM | OVCAR-5 > 100 µM | NCI-H522 > 100 µM | SK-MEL-5 > 100 µM | SK-MEL-2 > 100 µM | UACC-257 > 100 µM | CAKI-1 > 100 µM | CCRF-CEM 40.2 µM | LOX IMVI > 100 µM | HT-29 > 100 µM | HL-60 26.2 µM | NCI-H23 > 100 µM

Cc1cc([N+](=O)[O-])ccc1Sc1c2ccccc2nc2ccccc12
inactive: A498 > 100 µM | MOLT-4 15.7 µM | SNB-19 45.5 µM | OVCAR-8 29.1 µM | OVCAR-5 > 100 µM | NCI-H522 18.1 µM | SK-MEL-5 43.1 µM | SK-MEL-2 23.1 µM | UACC-257 29.4 µM | CAKI-1 26.4 µM | CCRF-CEM 21.8 µM | LOX IMVI 20 µM | HL-60 3.03 µM | NCI-H23 33 µM

COC1=C(C(=O)OC(C)(C)C)C23CCCCC2(C(C(=O)OC(C)(C)C)=C(OC)C3C(=O)OC(C)(C)C)C1C(=O)OC(C)(C)C (centres undefined)
inactive: A498 > 100 µM | MOLT-4 6.46 µM | SNB-19 > 100 µM | OVCAR-8 59.6 µM | OVCAR-5 > 100 µM | NCI-H522 11.6 µM | SK-MEL-5 12.4 µM | SK-MEL-2 4.18 µM | UACC-257 6.1 µM | CAKI-1 > 100 µM | CCRF-CEM 27.9 µM | LOX IMVI 34.4 µM | HT-29 18.5 µM | HL-60 6.81 µM | NCI-H23 21.5 µM

COC(=O)CC[N+]1([O-])CC1
inactive: DU-145 > 100 µM | A498 33.2 µM | MOLT-4 > 100 µM | MDA-MB-231 > 100 µM | SNB-19 > 100 µM | OVCAR-8 > 100 µM | OVCAR-5 > 100 µM | NCI/ADR-RES > 100 µM | SK-MEL-5 > 100 µM | UACC-257 > 100 µM | MDA-MB-435 > 100 µM | CCRF-CEM > 100 µM | LOX IMVI > 100 µM | HT-29 > 100 µM | HL-60 > 100 µM | NCI-H23 > 100 µM

COc1c(C)c2c(c3c1c(=O)c1ccccc1n3C)C=CC(C)(C)O2
inactive: A498 32.7 µM | MOLT-4 19.5 µM | SNB-19 41.3 µM | OVCAR-8 25.6 µM | OVCAR-5 29.2 µM | NCI-H522 20.9 µM | SK-MEL-5 15.3 µM | SK-MEL-2 25 µM | UACC-257 28.9 µM | CAKI-1 26.2 µM | CCRF-CEM 21.4 µM | LOX IMVI 15.2 µM | HT-29 14 µM | HL-60 9.73 µM | NCI-H23 27.1 µM

COc1ccc(C(C)Nc2cc(OC)c(OC)c(OC)c2)cc1 (centres undefined)
inactive: A498 4.45 µM | MOLT-4 4.61 µM | SNB-19 > 25.2 µM | OVCAR-8 7.16 µM | OVCAR-5 29.5 µM | NCI-H522 2.51 µM | SK-MEL-5 2.54 µM | SK-MEL-2 3.01 µM | UACC-257 3.27 µM | CAKI-1 4.23 µM | CCRF-CEM 3.29 µM | LOX IMVI 10.9 µM | HT-29 3.57 µM | HL-60 1.94 µM | NCI-H23 3.72 µM

O=C1OCC2C1C1c3ccccc3C(O)c3ccccc3C21 (centres undefined)
inactive: A498 > 100 µM | MOLT-4 > 100 µM | OVCAR-8 > 100 µM | OVCAR-5 > 100 µM | SK-MEL-5 > 100 µM | SK-MEL-2 > 100 µM | UACC-257 > 100 µM | CAKI-1 > 100 µM | CCRF-CEM > 100 µM | LOX IMVI > 100 µM | HT-29 > 100 µM | HL-60 > 100 µM | NCI-H23 > 100 µM

CCC(/C(=N\Nc1c(Cl)cc(Cl)cc1Cl)c1ccccc1)n1ccnc1C (centres undefined)
inactive: A498 14.2 µM | MOLT-4 5.41 µM | SNB-19 14.4 µM | OVCAR-8 12.9 µM | OVCAR-5 9.04 µM | NCI-H522 4.55 µM | SK-MEL-5 7.91 µM | SK-MEL-2 13.3 µM | UACC-257 14.5 µM | CAKI-1 11 µM | CCRF-CEM 13 µM | LOX IMVI 12.2 µM | HT-29 8.05 µM | HL-60 3.82 µM | NCI-H23 10.7 µM

Cc1cn(Cc2ccccc2CCl)c(=O)[nH]c1=O
inactive: DU-145 13.1 µM | MOLT-4 3.15 µM | SNB-19 12.3 µM | OVCAR-8 12.1 µM | OVCAR-5 23.3 µM | NCI-H522 6.34 µM | NCI/ADR-RES 18.2 µM | SK-MEL-5 7.4 µM | SK-MEL-2 14.3 µM | UACC-257 13.4 µM | MDA-MB-435 11.5 µM | CAKI-1 10.4 µM | CCRF-CEM 4.58 µM | HT-29 15.4 µM | HL-60 3.08 µM | NCI-H23 10.2 µM

O=C(O)CCC(=O)OCN1C(=O)C2C3C=CC(C2C1=O)C1C2C(=O)N(COC(=O)CCC(=O)O)C(=O)C2C31 (centres undefined)
inactive: A498 > 100 µM | MOLT-4 > 90.4 µM | SNB-19 > 100 µM | OVCAR-8 56.9 µM | OVCAR-5 > 100 µM | NCI-H522 > 47 µM | SK-MEL-5 > 100 µM | SK-MEL-2 > 100 µM | UACC-257 > 100 µM | CAKI-1 > 100 µM | CCRF-CEM 34 µM | LOX IMVI > 45.5 µM | HT-29 > 100 µM | HL-60 23.4 µM | NCI-H23 > 100 µM

COC(=O)[C@]1(C)CCC[C@]2(C)C3CC4OOC3(C=C4C(C)(C)O)CCC21 (some centres undefined)
inactive: A498 24.4 µM | MOLT-4 22.2 µM | SNB-19 > 100 µM | OVCAR-8 34.6 µM | OVCAR-5 > 100 µM | NCI-H522 20.2 µM | SK-MEL-5 34.6 µM | SK-MEL-2 > 100 µM | UACC-257 80.5 µM | CAKI-1 64.6 µM | CCRF-CEM 21.6 µM | LOX IMVI 36.8 µM | HT-29 22.6 µM | HL-60 14.3 µM | NCI-H23 94 µM

Cc1cccc(NC(=O)c2cccc([N+](=O)[O-])c2O)c1C
inactive: DU-145 37.3 µM | A498 28.5 µM | MOLT-4 19.4 µM | MDA-MB-231 37.9 µM | SNB-19 18.7 µM | OVCAR-8 33.7 µM | OVCAR-5 30.6 µM | NCI-H522 16.8 µM | NCI/ADR-RES 16.5 µM | SK-MEL-5 9.62 µM | SK-MEL-2 4.92 µM | UACC-257 24.9 µM | MDA-MB-435 29.2 µM | CAKI-1 27.4 µM | CCRF-CEM 14.9 µM | LOX IMVI 23 µM | HT-29 27.7 µM | HL-60 13.4 µM | NCI-H23 17.5 µM
